Entries after “also recorded” stand apart in the source; their conditions may differ.
Tests used:
alpha-2 receptor = conditions: background, cited from earlier work; for activity/potency of the isomers (in words): isomers compared with each other
[1] = skin permeability, base versus salts (general statement); format: in vitro ADME; conditions: free base vs its salts; no data given
[2] = no data given; cited from earlier work

For `Cc1cccc(C(C)c2cnc[nH]2)c1C` (stereo not drawn) [Medetomidine, 4(5)-[alpha-methyl-2,3-dimethylbenzyl] imidazole], the “alpha-2 receptor agonist potency and selectivity (in words)” value (alpha-2 receptor) is given as “potent and selective alpha-2 receptor agonist”.

For `Cc1cccc([C@@H](C)c2cnc[nH]2)c1C` [Preparation 1-isomer], the “activity/potency of the isomers (in words)” value (alpha-2 receptor) is given as “far less potent”.

In the case of `Cc1cccc([C@H](C)c2cnc[nH]2)c1C` [dexmedetomidine], the “skin permeability of base form relative to salts (in words)” value [1] is listed as “the skin is somewhat more permeable to the base form of the drug than its salts”, the “clearance rate from the body (in words)” value [2] is listed as “quite high; also recorded: relatively high” and the “activity/potency of the isomers (in words)” value (alpha-2 receptor) is listed as “the active isomer”.
